Experimental findings from US9901558B2, “Enhancer of survival of transplanted organ” (SBI Pharmaceuticals Co., Ltd., priority 2011, dated 2018) are described below.

Structures are written as SMILES.

In the test the test system is heterotopic heart-transplanted model mice. Briefly: Heterotopic homologous heart transplantation in mice (B10 donors to CBA recipients), heart graft beating/survival. The conditions noted are these: group (b), n = 5: both donor and recipient mice received ALA (100 mg/kg) alone. The format is in vivo. An excerpt: B10 mice (male, 10 weeks old on average, body weight: 20 to 25 g) were used as donors for the hearts to be transplanted. CBA mice (male, 10 weeks old on average, body weight: 20 to 25 g) were used as recipients to receive the hearts taken out of the donors. The procedures of the heterotopic homologous heart transplantation in mice followed the description of Experimental Manual of Organ Transplantation (Shujunsha Co., Ltd.), Paragraph 1, Part 2, 2-1-5 “Heterotopic Heart Transplantation in Mice”. Hereinafter, the procedures will be summarized.
The thorax of each donor mouse was opened under anesthesia and sufficiently perfused using 1 mL of saline supplemented with cold heparin, followed by excision of the heart. The excised heart was preserved in saline supplemented with cold heparin. The abdomen of each recipient mouse was opened under anesthesia, and the heart excised from the donor mouse was transplanted into the abdominal vena cava to prepare heterotopic heart-transplanted model mice.
The heterotopic heart-transplanted model mice were divided into groups (1) to (4) with administration patterns shown in Table 1 below. An experiment was conducted on the oral administration of the agent for promoting graft survival of the present invention. […]

In the case of `NCC(=O)CCC(=O)O` [ALA, 5-aminolevulinic acid], the “long-term beating of heart graft” value is given as “seen in none of these individuals”.
